# From ChEMBL document CHEMBL5506059, “Cyanomethylquinolones as a New Class of Potential Multitargeting Broad-Spectrum Antibacterial Agents” (J Med Chem, 2024)
# The source made the active and inactive calls. The rule behind the calls is not given here.
# How the values were obtained:
# Enterococcus faecalis [1] = assay: Antibacterial activity against vancomycin-resistant Enterococcus faecalis clinical isolate p1-2007225053 assessed as inhibition of bacterial growth incubated for 24 hrs; type: functional
# Pseudomonas aeruginosa [2] = assay: Resistance development in Pseudomonas aeruginosa assessed as increase in MIC measured after 20 days; type: functional, organism-based; settings: time 20.0 day
# Klebsiella pneumoniae = assay: Antibacterial activity against Klebsiella pneumoniae clinical isolate assessed as inhibition of bacterial growth incubated for 24 hrs; type: functional
# Escherichia coli [3] = assay: Antibacterial activity against Escherichia coli clinical isolate assessed as inhibition of bacterial growth incubated for 24 hrs; type: functional
# Staphylococcus aureus [4] = assay: Antibacterial activity against Staphylococcus aureus ATCC 12600 assessed as inhibition of bacterial growth incubated for 24 hrs; type: functional
# Staphylococcus aureus [5] = assay: Antibacterial activity against Staphylococcus aureus ATCC 6538 assessed as inhibition of bacterial growth incubated for 24 hrs; type: functional
# Pseudomonas aeruginosa [6] = assay: Induction of intracellular ROS generation in Pseudomonas aeruginosa assessed as increase in fluorescence intensity at 2 ug/ml incubated for 6 hrs in presence of N-acetyl-L-cysteine by DCFH-DA dye based fluorescence analysis; type: functional, organism-based; settings: dose 2.0 µg/ml
# Streptococcus pyogenes = assay: Antibacterial activity against Streptococcus pyogenes ATCC 19615 assessed as inhibition of bacterial growth incubated for 24 hrs; type: functional
# Acinetobacter baumannii = assay: Antibacterial activity against Acinetobacter baumannii clinical isolate assessed as inhibition of bacterial growth incubated for 24 hrs; type: functional
# Pseudomonas aeruginosa [7] = assay: Antibacterial activity against Pseudomonas aeruginosa clinical isolate assessed as inhibition of bacterial growth incubated for 24 hrs; type: functional
# Cell membrane [8] = assay: Induction of cell membrane permeability in Pseudomonas aeruginosa assessed as increase in fluorescence intensity at 1 to 2 ug/ml incubated for 6 hrs by PI staining based fluorescence analysis; type: cell membranes; settings: dose 1-2 µg/ml
# Staphylococcus aureus [9] = assay: Antibacterial activity against Staphylococcus aureus ATCC 29213 assessed as inhibition of bacterial growth incubated for 24 hrs; type: functional
# Staphylococcus aureus [10] = assay: Antibacterial activity against Staphylococcus aureus ATCC 25923 assessed as inhibition of bacterial growth incubated for 24 hrs; type: functional
# Enterococcus faecium = assay: Antibacterial activity against Enterococcus faecium ATCC 19434 assessed as inhibition of bacterial growth incubated for 24 hrs; type: functional
# Staphylococcus aureus [11] = assay: Resistance development in methicillin resistant Staphylococcus aureus assessed as increase in MIC measured after 20 days; type: functional, organism-based; settings: time 20.0 day
# Escherichia coli [12] = assay: Antibacterial activity against Escherichia coli ATCC 25922 assessed as inhibition of bacterial growth incubated for 24 hrs; type: functional
# [13] = Hemolytic activity in human Red blood cells at 256 ug/ml measured after 1.5 hrs by absorbance based assay relative to control; type: toxicity, cell-based, Erythrocyte; settings: red blood cells (erythrocytes), at 256 µg/mL, read-out: Activity
# Erythrocyte = assay: Hemolytic activity in human Red blood cells assessed as concentration required for 5% hemolysis measured after 1.5 hrs by absorbance based assay; type: toxicity, cell-based
# Staphylococcus aureus [14] = assay: Antibacterial activity against methicillin-resistant Staphylococcus aureus ATCC 43300 assessed as inhibition of bacterial growth incubated for 24 hrs; type: functional
# Cell membrane [15] = assay: Induction of cell membrane permeability in methicillin-resistant Staphylococcus aureus assessed as increase in fluorescence intensity at 1 to 2 ug/ml incubated for 6 hrs by PI staining based fluorescence analysis; type: cell membranes; settings: dose 1-2 µg/ml
# Cell membrane [16] = assay: Induction of cell membrane depolarization in methicillin-resistant Staphylococcus aureus assessed as increase in fluorescence intensity at 1 ug/ml measured for 30 mins by DiSC35 dye based fluorescence analysis; type: cell membranes; settings: dose 1.0 µg/ml
# Staphylococcus aureus [17] = assay: Antibacterial activity against Staphylococcus aureus clinical isolate assessed as inhibition of bacterial growth incubated for 24 hrs; type: functional
# Pseudomonas aeruginosa [18] = assay: Antibacterial activity against Pseudomonas aeruginosa ATCC 27853 assessed as inhibition of bacterial growth incubated for 24 hrs; type: functional
# Staphylococcus aureus [19] = assay: Antibiofilm activity in methicillin resistant Staphylococcus aureus assessed as biofilm eradication measured after 24 hrs by crystal violet staining based analysis; type: functional, organism-based; settings: dose 1-2 µg/ml
# Cell membrane [20] = assay: Induction of cell membrane depolarization in Pseudomonas aeruginosa assessed as increase in fluorescence intensity at 1 ug/ml measured for 30 mins by DiSC35 dye based fluorescence analysis; type: cell membranes; settings: dose 1.0 µg/ml
# Staphylococcus aureus [21] = assay: Antibacterial activity against methicillin resistant Staphylococcus aureus assessed as reduction in metabolic activity by measuring reduction in fluorescence intensity at 0.5 to 2 times MIC incubated for 6 hrs by alamar blue assay; type: functional, organism-based
# Streptococcus pneumoniae = assay: Antibacterial activity against Streptococcus pneumoniae ATCC 6305 assessed as inhibition of bacterial growth incubated for 24 hrs; type: functional
# Staphylococcus aureus [22] = assay: Antibacterial activity against Staphylococcus aureus CMCC(B)26001 assessed as inhibition of bacterial growth incubated for 24 hrs; type: functional
# [23] = system: Staphylococcus epidermidis; assay: Antibacterial activity against Staphylococcus epidermidis ATCC 12228 assessed as inhibition of bacterial growth incubated for 24 hrs; type: functional
# Staphylococcus aureus [24] = assay: Antibacterial activity against methicillin resistant Staphylococcus aureus clinical isolate assessed as inhibition of bacterial growth incubated for 24 hrs; type: functional
# Cell membrane [25] = assay: Induction of cell membrane damage in Pseudomonas aeruginosa assessed as increase in nucleic acid leakage at 0 to 2 ug/ml incubated for 12 hrs by optical density based microplate reader analysis; type: cell membranes; settings: dose 0-2 µg/ml
# Enterococcus faecalis [26] = assay: Antibacterial activity against Enterococcus faecalis clinical isolate assessed as inhibition of bacterial growth incubated for 24 hrs; type: functional
# Enterococcus faecalis [27] = assay: Antibacterial activity against vancomycin-resistant Enterococcus faecalis clinical isolate p1-2007226001 assessed as inhibition of bacterial growth incubated for 24 hrs; type: functional
# Staphylococcus aureus [28] = assay: Antibacterial activity against methicillin resistant Staphylococcus aureus clinical isolate assessed as inhibition of bacterial growth incubated under dark condition and measured upto 5 hrs; type: functional, organism-based
# Cell membrane [29] = assay: Induction of cell membrane damage in methicillin-resistant Staphylococcus aureus assessed as increase in nucleic acid leakage at 0 to 2 ug/ml incubated for 12 hrs by optical density based microplate reader analysis; type: cell membranes; settings: dose 0-2 µg/ml
# Pseudomonas aeruginosa [30] = assay: Antibacterial activity against Pseudomonas aeruginosa assessed as reduction in metabolic activity by measuring reduction in fluorescence intensity at 0.5 to 2 times MIC incubated for 6 hrs by alamar blue assay; type: functional, organism-based
# Pseudomonas aeruginosa [31] = assay: Antibiofilm activity in Pseudomonas aeruginosa assessed as biofilm eradication measured after 24 hrs by crystal violet staining based analysis; type: functional, organism-based; settings: dose 1-2 µg/ml
# Staphylococcus aureus [32] = assay: Antibacterial activity against Staphylococcus aureus CMCC(B)26003 assessed as inhibition of bacterial growth incubated for 24 hrs; type: functional
# Pseudomonas aeruginosa [33] = assay: Induction of intracellular ROS generation in Pseudomonas aeruginosa assessed as increase in fluorescence intensity at 2 ug/ml incubated for 6 hrs by DCFH-DA dye based fluorescence analysis; type: functional, organism-based; settings: dose 2.0 µg/ml
# Cell membrane [34] = assay: Induction of cell membrane permeability in methicillin-resistant Staphylococcus aureus assessed as increase in fluorescence intensity at 1 ug/ml incubated for 6 hrs by PI staining based fluorescence analysis; type: cell membranes; settings: dose 1.0 µg/ml
# Pseudomonas aeruginosa [35] = assay: Antibiofilm activity in Pseudomonas aeruginosa assessed as biofilm eradication at 1 to 2 ug/ml measured after 24 hrs by crystal violet staining based analysis; type: functional, organism-based; settings: dose 1-2 µg/ml
# Pseudomonas aeruginosa [36] = assay: Resistance development in ciprofloxacin-treated Pseudomonas aeruginosa ATCC 27853 assessed as increase in MIC measured after 15th generation; type: functional, organism-based
# Pseudomonas aeruginosa [37] = assay: Induction of morphological changes in Pseudomonas aeruginosa at 2 ug/ml incubated for 3 hrs by SEM analysis; type: functional, organism-based; settings: dose 2.0 µg/ml
# Staphylococcus aureus [38] = assay: Resistance development in ciprofloxacin-treated methicillin resistant Staphylococcus aureus assessed as increase in MIC measured after 15th generation; type: functional, organism-based
# Staphylococcus aureus [39] = assay: Antibiofilm activity in methicillin resistant Staphylococcus aureus assessed as biofilm eradication at 1 to 2 ug/ml measured after 24 hrs by crystal violet staining based analysis; type: functional, organism-based; settings: dose 1-2 µg/ml
# Staphylococcus aureus [40] = assay: Resistance development in ciprofloxacin-treated Staphylococcus aureus ATCC 6538 assessed as increase in MIC measured after 15th generation; type: functional, organism-based
# Staphylococcus aureus [41] = assay: Induction of morphological changes in methicillin resistant Staphylococcus aureus at 2 ug/ml incubated for 3 hrs by SEM analysis; type: functional, organism-based; settings: dose 2.0 µg/ml
# Cell membrane [42] = assay: Induction of cell membrane permeability in Pseudomonas aeruginosa assessed as increase in fluorescence intensity at 1 ug/ml incubated for 6 hrs by PI staining based fluorescence analysis; type: cell membranes; settings: dose 1.0 µg/ml
# Pseudomonas aeruginosa [43] = assay: Resistance development in ciprofloxacin-treated Pseudomonas aeruginosa assessed as increase in MIC measured after 15th generation; type: functional, organism-based
# Pseudomonas aeruginosa [44] = assay: Bactericidal activity against Pseudomonas aeruginosa assessed as increase in fluorescence intensity at 2 ug/ml incubated for 6 hrs by PI staining based fluorescence analysis; type: functional, organism-based; settings: dose 2.0 µg/ml
# Staphylococcus aureus [45] = assay: Bactericidal activity against methicillin-resistant Staphylococcus aureus assessed as increase in fluorescence intensity at 2 ug/ml incubated for 6 hrs by PI staining based fluorescence analysis; type: functional, organism-based; settings: dose 2.0 µg/ml
smiles,measurement,setting,value
O=C(O)Cc1cc2c(cc1F)c(=O)c(C(=O)O)cn2C1CC1,MIC,Enterococcus faecalis [1],2 µg/mL
same,Activity,Pseudomonas aeruginosa [2],inactive
same,MIC,Klebsiella pneumoniae,8 µg/mL
same,MIC,Escherichia coli [3],1 µg/mL
same,MIC,Staphylococcus aureus [4],1 µg/mL
same,MIC,Staphylococcus aureus [5],0.25 µg/mL
same,Activity,Pseudomonas aeruginosa [6],inactive
same,MIC,Streptococcus pyogenes,1 µg/mL
same,MIC,Acinetobacter baumannii,0.5 µg/mL
same,MIC,Pseudomonas aeruginosa [7],0.5 µg/mL
same,Activity,Cell membrane [8],Active
same,MIC,Staphylococcus aureus [9],2 µg/mL
same,MIC,Staphylococcus aureus [10],32 µg/mL
same,MIC,Enterococcus faecium,8 µg/mL
same,Activity,Staphylococcus aureus [11],inactive
same,MIC,Escherichia coli [12],0.5 µg/mL
same,"hemolysis at 1.5 h, 256 ug/ml",[13],< 1%
same,HC5,Erythrocyte,> 10000 µg/mL
same,MIC,Staphylococcus aureus [14],2 µg/mL
same,Activity,Cell membrane [15],Active
same,Activity,Cell membrane [16],Active
same,MIC,Staphylococcus aureus [17],4 µg/mL
same,MIC,Pseudomonas aeruginosa [18],2 µg/mL
same,Activity,Staphylococcus aureus [19],Dose-Dependent Effect
same,Activity,Cell membrane [20],Active
same,Activity,Staphylococcus aureus [21],Active
same,MIC,Streptococcus pneumoniae,4 µg/mL
same,MIC,Staphylococcus aureus [22],0.125 µg/mL
same,MIC,[23],2 µg/mL
same,MIC,Staphylococcus aureus [24],0.5 µg/mL
same,Activity,Cell membrane [25],Active
same,MIC,Enterococcus faecalis [26],4 µg/mL
same,MIC,Enterococcus faecalis [27],8 µg/mL
same,Activity,Staphylococcus aureus [28],Dose-Dependent Effect
same,Activity,Cell membrane [29],Active
same,Activity,Pseudomonas aeruginosa [30],Active
same,Activity,Pseudomonas aeruginosa [31],Dose-Dependent Effect
same,MIC,Staphylococcus aureus [32],0.125 µg/mL
same,Activity,Pseudomonas aeruginosa [33],Active
O=C(O)c1cn(C2CC2)c2cc(N3CCNCC3)c(F)cc2c1=O [CIPROFLOXACIN],MIC,Staphylococcus aureus [5],0.5 µg/mL
same,Activity,Pseudomonas aeruginosa [6],inactive
same,MIC,Streptococcus pyogenes,16 µg/mL
same,Activity,Cell membrane [34],inactive
same,MIC,Staphylococcus aureus [9],0.5 µg/mL
same,Activity,Pseudomonas aeruginosa [35],inactive
same,Activity,Pseudomonas aeruginosa [36],Active
same,MIC,Staphylococcus aureus [10],1 µg/mL
same,MIC,Enterococcus faecium,2 µg/mL
same,Activity,Pseudomonas aeruginosa [37],Active
same,Activity,Staphylococcus aureus [38],Active
same,Activity,Staphylococcus aureus [39],inactive
same,Activity,Cell membrane [16],inactive
same,Activity,Staphylococcus aureus [40],Active
same,Activity,Staphylococcus aureus [41],Active
same,Activity,Cell membrane [20],inactive
same,Activity,Cell membrane [42],inactive
same,Activity,Pseudomonas aeruginosa [43],Active
same,Activity,Pseudomonas aeruginosa [44],Active
same,MIC,Streptococcus pneumoniae,0.125 µg/mL
same,MIC,[23],0.125 µg/mL
same,Activity,Staphylococcus aureus [45],Active
same,Activity,Pseudomonas aeruginosa [33],Active
